From ChEMBL document CHEMBL1795311, “Synthesis, antiproliferative activity, and mechanism of action of a series of 2-{[(2E)-3-phenylprop-2-enoyl]amino}benzamides” (Eur J Med Chem, 2011)

Columns and labels:
K562 [1] = experiment: Antiproliferative activity against human K562 cells at 10 uM after 48 hrs by trypan blue assay; format: functional; conditions: K562, 48 h, read-out: GI
K562 [2] = experiment: Growth inhibition of human K562 cells after 48 hrs by trypan blue assay; format: functional, cell-based; conditions: K562, 48 h

SMILES | IC50 (K562 [2]) [µM] | inhibition of growth at 10 µM (K562 [1]) [%]
NC(=O)c1cc(Cl)ccc1NC(=O)/C=C/c1ccccc1Br | 10 | 49
COc1cc2c(c(OC)c1OC)-c1ccc(OC)c(=O)cc1[C@@H](NC(C)=O)CC2 [COLCHICINE] | 0.02 | 63.6
NC(=O)c1ccccc1NC(=O)/C=C/c1ccccc1 | > 10 | 14.2

Now from value to compound, other results behind:

IC50 (K562 [2]) [µM] | SMILES | inhibition of growth at 10 µM (K562 [1]) [%]
> 10 | Cc1cccc(/C=C/C(=O)Nc2ccc(Br)cc2C(N)=O)c1 | 43.8
> 10 | Cc1cccc(/C=C/C(=O)Nc2ccc(Cl)cc2C(N)=O)c1 | 37.8
